Experimental data from patent US20230183193A1, “4-DIFLUOROMETHYL BENZOYL AMIDES WITH HERBICIDAL ACTION” (BAYER CROPSCIENCE AKTIENGESELLSCHAFT, priority 2017, published 2023).

Tests used:
Assay type in all cases: in vivo
Abutilon theophrasti [1] = assay: Pre-emergence herbicidal action, ABUTH; details: dosage 320 g/ha, scored visually after 3 weeks vs untreated controls
Excerpt: (§1) 1. Pre-Emergence Herbicidal Action Against Harmful Plants Seeds of monocotyledonous and dicotyledonous weed plants and crop plants are laid out in sandy loam soil in wood-fiber pots and covered with soil. The compounds of the invention, formulated in the form of wettable powders (WP) or as emulsion concentrates (EC), are then applied to the surface of the covering soil in the form of an aqueous suspension or emulsion at a water application rate equating to […], with addition of 0.2% wetting agent. After the treatment, the pots are placed in a greenhouse and kept under good growth conditions for the trial plants. The damage to the test plants is scored visually after a test period of 3 weeks by comparison with untreated controls (herbicidal activity in percent (%): 100% activity=the plants have died, 0% activity=like control plants).
(§2) For comparison, the herbicidal activity of numerous compounds according to the invention was tested with the structurally closest compounds known from the documents WO 2011/035874, WO 2012/028579 and WO 2012/126932, by the pre- and post-emergence method.

Viola tricolor [2] = assay: Pre-emergence herbicidal action, VIOTR; details: dosage 320 g/ha, scored visually after 3 weeks vs untreated controls
Excerpt: as §1, §2

Viola tricolor [3] = assay: Post-emergence herbicidal action, VIOTR; details: 80 g/ha, Table D
Procedure: (§3) Seeds of monocotyledonous and dicotyledonous weed and crop plants are laid out in sandy loam soil in wood-fiber pots, covered with soil and cultivated in a greenhouse under good growth conditions. 2 to 3 weeks after sowing, the test plants are treated at the one-leaf stage. The compounds of the invention, formulated in the form of wettable powders (WP) or as emulsion concentrates (EC), are then sprayed onto the green parts of the plants in the form of an aqueous suspension or emulsion at a water application rate equating to […], with addition of 0.2% wetting agent. After the test plants have been left to stand in the greenhouse under optimal growth conditions for about 3 weeks, the action of the preparations is assessed visually in comparison to untreated controls (herbicidal action in percent (%): 100% activity=the plants have died, 0% activity=like control plants). […] At the same time, inventive compounds leave Gramineae crops such as barley, wheat, rye, millet/sorghum, corn or rice virtually undamaged when applied post-emergence, even at high active compound dosages. In addition, some substances are also harmless to dicotyledonous crops such as soya, cotton, oilseed rape, sugar beet or potatoes. Some of the compounds according to the invention have high selectivity and are therefore suitable for controlling unwanted vegetation in agricultural crops by the post-emergence method. The data of Tables C and D below illustrate, in an exemplary manner, the […] herbicidal action of the compounds according to the invention, the herbicidal activity being stated in percent.
as §2

Stellaria media [4] = assay: Post-emergence herbicidal action, STEME; details: 80 g/ha, Table D
Procedure: as §3, §2

Amaranthus retroflexus [5] = assay: Pre-emergence herbicidal action, AMARE; details: dosage 320 g/ha, scored visually after 3 weeks vs untreated controls
Excerpt: as §1, §2

Setaria viridis [6] = assay: Post-emergence herbicidal action, SETVI; details: 80 g/ha, Table C
Procedure: as §3, §2

Amaranthus retroflexus [7] = assay: Post-emergence herbicidal action, AMARE; details: 80 g/ha, Table D
Procedure: as §3, §2

ECHCG = assay: Post-emergence herbicidal action, ECHCG; details: 80 g/ha, Table C
Procedure: as §3

Stellaria media [8] = assay: Pre-emergence herbicidal action, STEME; details: dosage 320 g/ha, scored visually after 3 weeks vs untreated controls
Excerpt: as §1, §2

Abutilon theophrasti [9] = assay: Post-emergence herbicidal action, ABUTH; details: 80 g/ha, Table D
Procedure: as §3, §2

Matricaria inodora = assay: Pre-emergence herbicidal action, MATIN; details: dosage 320 g/ha, scored visually after 3 weeks vs untreated controls
Excerpt: as §1, §2

Cyperus serotinus = assay: Pre-emergence herbicidal action, CYPES; details: dosage 320 g/ha, scored visually after 3 weeks vs untreated controls
Excerpt: as §1, §2

Pharbitis purpureum = assay: Post-emergence herbicidal action, PHBPU; details: 80 g/ha, Table D
Procedure: as §3, §2

Setaria viridis [10] = assay: Pre-emergence herbicidal action, SETVI; details: dosage 320 g/ha, scored visually after 3 weeks vs untreated controls
Excerpt: as §1, §2

Avena fatua = assay: Pre-emergence herbicidal action, AVEFA; details: dosage 320 g/ha, scored visually after 3 weeks vs untreated controls
Excerpt: as §1, §2

Alopecurus myosuroides = assay: Pre-emergence herbicidal action, ALOMY; details: dosage 320 g/ha, scored visually after 3 weeks vs untreated controls
Excerpt: as §1, §2

Structure (SMILES) | herbicidal activity ABUTH (Abutilon theophrasti [1]) [%] | herbicidal activity VIOTR (Viola tricolor [2]) [%] | herbicidal activity VIOTR (Viola tricolor [3]) [%] | Herbicidal activity STEME (Stellaria media [4]) [%] | herbicidal activity AMARE (Amaranthus retroflexus [5]) [%] | herbicidal activity SETVI (Setaria viridis [6]) [%] | herbicidal activity AMARE (Amaranthus retroflexus [7]) [%] | Herbicidal activity ECHCG (ECHCG) [%] | Herbicidal activity STEME (Stellaria media [8]) [%] | herbicidal activity ABUTH (Abutilon theophrasti [9]) [%] | herbicidal activity MATIN (Matricaria inodora) [%] | herbicidal activity CYPES (Cyperus serotinus) [%] | Herbicidal activity PHBPU (Pharbitis purpureum) [%] | herbicidal activity SETVI (Setaria viridis [10]) [%] | herbicidal activity AVEFA (Avena fatua) [%] | herbicidal activity ALOMY (Alopecurus myosuroides) [%]
CSc1c(C(F)F)ccc(C(=O)Nc2ncnn2C)c1F [Example 4-37] | 100 | 90 | 80 | 80 | 100 | 90 | 100 | 80 | 100 | 80 | 100 |  |  |  |  | 
CCS(=O)(=O)c1c(C(F)F)ccc(C(=O)Nc2ncnn2C)c1C1CC1 [Example 4-30] | 100 | 90 | 80 | 90 | 90 |  |  |  | 90 | 80 | 100 | 80 | 90 |  |  | 
Cn1nnnc1NC(=O)c1ccc(C(F)F)c(S(C)(=O)=O)c1I [Example 1-75] | 90 | 90 |  | 100 | 90 |  | 90 |  | 100 |  | 90 |  | 80 | 100 |  | 
Cn1ncnc1NC(=O)c1ccc(C(F)F)c(S(C)(=O)=O)c1I [Example 4-75] | 100 | 90 | 80 | 90 | 100 |  | 100 |  | 100 |  | 100 | 80 | 80 | 90 |  | 
Cn1ncnc1NC(=O)c1ccc(C(F)F)c(S(C)(=O)=O)c1F [Example 4-39] | 100 | 100 | 90 | 100 | 100 |  | 90 |  | 100 | 90 | 90 |  | 90 | 100 |  | 
CCSc1c(C(F)F)ccc(C(=O)Nc2ncnn2C)c1C1CC1 [Example 4-28] | 100 | 100 | 80 | 100 | 90 |  | 80 |  | 90 |  | 90 |  | 90 |  |  | 
CC[S+]([O-])c1c(C(F)F)ccc(C(=O)Nc2nonc2Cl)c1C (centres unmarked) [Example 6-5] | 100 | 100 | 100 | 90 | 100 | 90 |  | 100 | 90 | 80 | 90 |  |  | 100 | 90 | 90
